Data reported in PMC8199030, “Salvia officinalis L.: Antitrypanosomal Activity and Active Constituents against Trypanosoma brucei rhodesiense” (Molecules, 2021).
Values after ≈ are worked out from the molar mass of the structure shown. Values joined by “and” are separate entries in the source; they are usually repeats but may differ in a detail not shown here. Equal entries are not always repeated. Where two headings read alike, the source gives them in different places.

How the values were obtained:
[1] = Cytotoxicity against mammalian L6 cells; assay type: cell-based; conditions: rat
[2] = system: Trypanosoma brucei rhodesiense (Tbr, bloodstream-form trypomastigotes, STIB 900 strain); assay: microbe, parasite or virus in culture; conditions: Trypanosoma brucei, read-out: IC50 Tbr (STIB 900)
Method: (§1) Samples with a defined concentration of 2 mg/mL were prepared of each fraction and analyzed by UHPLC/ESI-QqTOF-MS (henceforth abbreviated LC/MS) to determine the analytical fingerprints. After the analysis and dereplication of major peaks (see Figure S1 and Table S1 in Supplementary Material) as well as comparison of the samples’ analytical profiles, 17 representative fractions were selected to be assayed in vitro against Tbr. […] IC50 values for the individual fractions were not determined, in order to save resources and since the % GI data can serve as an approximate substitute in cases where relative activities of similar samples such as the fractions under study are compared.
(§2) Melarsoprol was used as positive control. The cytotoxicity of the compounds was assessed using L6 rat skeletal myoblast cells and podophyllotoxin as a reference drug.
(§3) In vitro assays for the bioactivity against Trypanosoma brucei rhodesiense (Tbr, bloodstream-form trypomastigotes, STIB 900 strain) and cytotoxicity tests against mammalian cells (L6-cell-line from rat skeletal myoblasts) were performed at the Swiss Tropical and Public Health Institute (Swiss TPH, Basel, Switzerland), according to established protocols and as previously described.

[3] = in vitro; conditions: rat
Method: as §1, §2, §3

[4] = system: Trypanosoma brucei rhodesiense (Tbr, bloodstream-form trypomastigotes, STIB 900 strain); conditions: cited from earlier work
[5] = mean of two independent determinations ± deviation from the mean, read-out: IC50 Cytotox L6
[6] = mean of two independent determinations, read-out: IC50 Cytotox L6

In the case of `CC(C)c1cc2c(c(O)c1O)[C@@]13CCCC(C)(C)[C@@H]1[C@H](OC3=O)[C@@H]2O` [Epirosmanol (2), epirosmanol], the IC50 [1] is reported as 5 µg/mL and 15 µM, the IC50 [2] is reported as 3.2 µg/mL and 9.3 µM and the selectivity ratio [3] is reported as 1.6.
In the case of `COc1cc2oc(-c3ccc(O)cc3)cc(=O)c2c(O)c1OC` [Cirsimaritin (1), 4’,5-dihydroxy-6,7-dimethoxyflavone], the IC50 [1] is listed as 4.6 µg/mL and 15 µM, the “IC50 against Tbr, previous study” value ([4]; previous study) is listed as 3.3 µg/mL (≈ 10.5 µM) and the selectivity ratio [3] is listed as 2.8.
With `CC(C)c1cc2c(c(O)c1O)[C@@]13CCCC(C)(C)[C@@H]1[C@H](OC3=O)[C@H]2O` [Compound 3, rosmanol] the IC50 [2] was about 8.3 µg/mL (≈ 24 µM).
For `CC(C)C1=Cc2ccc3c(c2C(=O)C1=O)CCCC3(C)C` [Miltirone, miltirone, reference compound], the “activity against Tbr, previously reported” value [4] is listed as “very potent activity”.
In the case of `CO[C@H]1c2cc(C(C)C)c(O)c(O)c2[C@@]23CCCC(C)(C)[C@@H]2[C@@H]1OC3=O` [7-O-Methylrosmanol (5), 7-O-methylrosmanol], the IC50 [1, 5] is reported as 6.6 ± 0.8 µg/mL, the IC50 [1, 6] is reported as 18 µM and the IC50 [2] is reported as 8.3 µg/mL and 23 µM. The selectivity ratio [3] was 0.8.
`COc1cc([C@@H]2c3cc4c(cc3[C@H](O)[C@H]3COC(=O)[C@H]23)OCO4)cc(OC)c1OC` [Podophyllotoxin, reference compound] showed an IC50 [1, 5] of 0.009 ± 0.001 µg/mL and an IC50 [1, 6] of 0.022 µM.
For `C=C[C@](C)(O)CC[C@H]1C(=C)CC[C@H]2C(C)(C)CCC[C@]12C` [Manool (9), manool], the IC50 [1, 5] was 5.6 ± 0.5 µg/mL, the IC50 [1, 6] was 19 µM and the selectivity ratio [3] was 2.1.
For `COc1c(C(C)C)cc2c(c1O)[C@@]1(C(=O)O)CCCC(C)(C)[C@@H]1CC2` [12-O-Methylcarnosic acid (8), 12-O-methylcarnosic acid], the IC50 [1] was 20 µg/mL and 56 µM, the IC50 [2] was 15 µg/mL and 44 µM and the selectivity ratio [3] was 1.3.
